Assay results: the supplement of paper PMC10307832

What was measured:
Assay in all cases: relative viability (nuclei count vs DMSO), 5 days (fraction); higher = more cells survive
[1] = test system: A549
How it was run: (§1)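 Values are medians from duplicate plates. Each reflects relative viability, defined as the nuclei count of treated wells over that of vehicle wells. Lung cancer cell lines in 1536-well plates were pin-tool dosed one day after seeding with one drug alone or with a fixed anchor-drug dose plus five library-drug doses (not always all listed) in √10 steps, then fixed, stained and imaged at 4× after 5 days.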

[2] = test system: ABC-1
How it was run: as §1

[3] = test system: Calu-6
How it was run: as §1

[4] = test system: EBC-1
How it was run: as §1

[5] = test system: EKVX
How it was run: as §1

[6] = test system: HCC-44
How it was run: as §1

[7] = test system: IA-LM
How it was run: as §1

[8] = test system: NCI-H1299
How it was run: as §1

[9] = test system: NCI-H1703
How it was run: as §1

[10] = test system: NCI-H1993
How it was run: as §1

[11] = test system: NCI-H2085
How it was run: as §1

[12] = test system: NCI-H2126
How it was run: as §1

[13] = test system: RERF-LC-KJ
How it was run: as §1

## O=c1cc(-c2cccc3c2Sc2ccccc2S3)oc(N2CCOCC2)c1 + C[C@@H](Oc1cc(-c2cnn(C3CCNCC3)c2)cnc1N)c1c(Cl)ccc(F)c1Cl [Crizotinib] (partner 1 µM)
[1]; first compound 0.08 µM
  relative viability: 0.706
[1]; first compound 0.253 µM
  relative viability: 1.11
[1]; first compound 0.8 µM
  relative viability: 0.765
[1]; first compound 2.53 µM
  relative viability: 0.691
[1]; first compound 8 µM
  relative viability: 0.578
[2]; first compound 0.08 µM
  relative viability: 1.27
[2]; first compound 0.253 µM
  relative viability: 1.24
[2]; first compound 0.8 µM
  relative viability: 1.05
[2]; first compound 2.53 µM
  relative viability: 1.31
[2]; first compound 8 µM
  relative viability: 1.49
[3]; first compound 0.08 µM
  relative viability: 0.725
[3]; first compound 0.253 µM
  relative viability: 0.839
[3]; first compound 0.8 µM
  relative viability: 0.969
[3]; first compound 2.53 µM
  relative viability: 0.692
[3]; first compound 8 µM
  relative viability: 0.733
[4]; first compound 0.08 µM
  relative viability: 0.212
[4]; first compound 0.253 µM
  relative viability: 0.175
[4]; first compound 0.8 µM
  relative viability: 0.156
[4]; first compound 2.53 µM
  relative viability: 0.182
[4]; first compound 8 µM
  relative viability: 0.26
[5]; first compound 0.08 µM
  relative viability: 0.896
[5]; first compound 0.253 µM
  relative viability: 1.1
[5]; first compound 0.8 µM
  relative viability: 0.971
[5]; first compound 2.53 µM
  relative viability: 1.04
[5]; first compound 8 µM
  relative viability: 1.04
[6]; first compound 0.08 µM
  relative viability: 0.811
[6]; first compound 0.253 µM
  relative viability: 0.886
[6]; first compound 0.8 µM
  relative viability: 0.83
[6]; first compound 2.53 µM
  relative viability: 0.859
[6]; first compound 8 µM
  relative viability: 0.854
[7]; first compound 0.08 µM
  relative viability: 0.899
[7]; first compound 0.253 µM
  relative viability: 0.971
[7]; first compound 0.8 µM
  relative viability: 0.847
[7]; first compound 8 µM
  relative viability: 0.9
[8]; first compound 0.08 µM
  relative viability: 0.999
[8]; first compound 0.253 µM
  relative viability: 0.977
[8]; first compound 0.8 µM
  relative viability: 1
[8]; first compound 2.53 µM
  relative viability: 0.956
[8]; first compound 8 µM
  relative viability: 0.835
[9]; first compound 0.08 µM
  relative viability: 0.463
[9]; first compound 0.253 µM
  relative viability: 0.519
[9]; first compound 0.8 µM
  relative viability: 0.99
[9]; first compound 2.53 µM
  relative viability: 1.01
[9]; first compound 8 µM
  relative viability: 0.777
[10]; first compound 0.08 µM
  relative viability: 0.838
[10]; first compound 0.253 µM
  relative viability: 1.01
[10]; first compound 0.8 µM
  relative viability: 0.89
[10]; first compound 2.53 µM
  relative viability: 0.871
[10]; first compound 8 µM
  relative viability: 0.99
[11]; first compound 0.08 µM
  relative viability: 0.913
[11]; first compound 0.253 µM
  relative viability: 1.06
[11]; first compound 0.8 µM
  relative viability: 0.939
[11]; first compound 2.53 µM
  relative viability: 0.832
[11]; first compound 8 µM
  relative viability: 0.93
[12]; first compound 0.08 µM
  relative viability: 1.02
[12]; first compound 0.253 µM
  relative viability: 1.09
[12]; first compound 0.8 µM
  relative viability: 1.17
[12]; first compound 2.53 µM
  relative viability: 0.994
[12]; first compound 8 µM
  relative viability: 1.04
[13]; first compound 0.08 µM
  relative viability: 0.823
[13]; first compound 0.253 µM
  relative viability: 0.922
[13]; first compound 0.8 µM
  relative viability: 0.871
[13]; first compound 2.53 µM
  relative viability: 0.948
[13]; first compound 8 µM
  relative viability: 1.05
